Consider four compounds from publication PMC9405123, “Design, Synthesis and Mechanistic Studies of Novel Isatin-Pyrazole Hydrazone Conjugates as Selective and Potent Bacterial MetAP Inhibitors” (Antibiotics, 2022).

Series [1] deals with EcMetAP1. More on the design: method as in PMID 15506752. The conditions noted are these: Co(II) as the cofactor; cited from earlier work.
The subject of series [2] is E. faecalis. Nature of the series: Growth inhibition screening (broth dilution). The conditions noted are these: Enterococcus faecalis. The format is cell-based, Enterococcus faecalis. In a few lines:
(§1)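 NCCLS broth dilution in nutrient broth with compounds from DMSO at a final 250 µg/mL. About 2.5 × 10^5 cells/mL were inoculated and incubated overnight at 37 °C. Growth was measured as turbidity at 590 nm.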
In general terms: Dilution methods test growth across graded concentrations, often in twofold steps.

In series [3] the test system is E. coli. Briefly: Growth inhibition screening (broth dilution). It counts as cell-based, Escherichia coli. The settings on record: Escherichia coli. An outline of the steps:
as §1

Series [4] has as its system P. aeruginosa. Briefly: Growth inhibition screening (broth dilution). It counts as cell-based, Pseudomonas aeruginosa. The conditions noted are these: Pseudomonas aeruginosa. An outline of the steps: as §1
Series [5] has as its system K. pneumoniae. Nature of the series: Growth inhibition screening (broth dilution). The format is cell-based, Klebsiella pneumonia. The conditions noted are these: Klebsiella pneumoniae. In a few lines: as §1
Series [6] deals with HK32. Nature of the series: MIC on environmental MDR isolate (microdilution). The settings on record: Enterobacter cloacae.
Series [7] deals with LG51. Nature of the series: MIC on environmental MDR isolate (microdilution). The conditions noted are these: Escherichia coli.
Series [8] relates to P. aeruginosa. Briefly: Combination study with AMP or CIP. The settings on record: combination PS9 + AMP.
For series [9], the system named is E. coli. Nature of the series: Combination study with AMP or CIP. The settings on record: combination PS9 + AMP.
Series [10] deals with JST28. Briefly: MIC on environmental MDR isolate (microdilution). The conditions noted are these: Escherichia coli.
The test system of series [11] is LG33. Briefly: MIC on environmental MDR isolate (microdilution). The settings on record: Enterobacter.
The subject of series [12] is E. coli. Nature of the series: Minimum inhibitory concentration (broth dilution). The conditions noted are these: alone. It counts as cell-based, Escherichia coli.
In series [13] the test system is HK43. Briefly: MIC on environmental MDR isolate (microdilution). The conditions noted are these: Exiguobacterium mexicanum.
In series [14] the test system is P. aeruginosa. Briefly: Minimum inhibitory concentration (broth dilution). The format is cell-based. The settings on record: Pseudomonas aeruginosa, alone.
Series [15] relates to HK91. Nature of the series: MIC on environmental MDR isolate (microdilution). The settings on record: Ralstonia.
Series [16] relates to HK1. Briefly: MIC on environmental MDR isolate (microdilution).
In series [17] the test system is E. faecalis. Nature of the series: Combination study with AMP or CIP.
Series [18] has as its system K. pneumoniae. Nature of the series: Combination study with AMP or CIP.
Series [19] relates to B. subtilis. Nature of the series: Growth inhibition screening (broth dilution). The settings on record: Bacillus subtilis. The format is cell-based, Bacillus subtilis. In a few lines: as §1
The subject of series [20] is SD6. Nature of the series: MIC on environmental MDR isolate (microdilution). The settings on record: Escherichia coli, isolate SD6 E. coli.
The test system of series [21] is SH28. Briefly: MIC on environmental MDR isolate (microdilution). The settings on record: Aeromonas caviae.
Series [22] relates to K. pneumoniae. Nature of the series: Minimum inhibitory concentration (broth dilution). The format is cell-based, Klebsiella pneumonia. The conditions noted are these: Klebsiella pneumoniae, alone, read-out: MIC.
Series [23] relates to B. subtilis. Nature of the series: Minimum inhibitory concentration (broth dilution). The format is cell-based. The settings on record: Bacillus subtilis, alone.
Series [24] deals with JST71. Briefly: MIC on environmental MDR isolate (microdilution). The conditions noted are these: Enterobacter.
In series [25] the test system is SH34. Nature of the series: MIC on environmental MDR isolate (microdilution). The conditions noted are these: Serratia marcescens.
The subject of series [26] is HK41. Nature of the series: MIC on environmental MDR isolate (microdilution). The settings on record: Enterobacter cloacae.
The subject of series [27] is S. aureus. Briefly: Growth inhibition screening (broth dilution). The settings on record: Staphylococcus aureus. It counts as cell-based, Staphylococcus aureus.
In series [28] the test system is JST63. Briefly: MIC on environmental MDR isolate (microdilution).
Series [29] has as its system LG20. Briefly: MIC on environmental MDR isolate (microdilution). The settings on record: Enterobacter, isolate LG20 Enterobacter sp.
For series [30], the system named is S. aureus. Nature of the series: Combination study with AMP or CIP.
For series [31], the system named is S. aureus. Nature of the series: Minimum inhibitory concentration (broth dilution). The format is cell-based. The conditions noted are these: Staphylococcus aureus, alone.
Series [32] deals with JST61. Briefly: MIC on environmental MDR isolate (microdilution). The settings on record: Pantoea agglomerans.
For series [33], the system named is JST78. Briefly: MIC on environmental MDR isolate (microdilution). The conditions noted are these: Escherichia coli.
In series [34] the test system is LG71. Nature of the series: MIC on environmental MDR isolate (microdilution). The settings on record: Enterobacter cloacae.
In series [35] the test system is SD5. Briefly: MIC on environmental MDR isolate (microdilution). The settings on record: Escherichia coli, isolate SD5 E. coli.
Series [36] has as its system E. faecalis. Nature of the series: Minimum inhibitory concentration (broth dilution). The settings on record: Enterococcus faecalis, alone. The format is cell-based.
Series [37] concerns JST68. Nature of the series: MIC on environmental MDR isolate (microdilution). The settings on record: Escherichia coli.
Series [38] relates to LG24. Nature of the series: MIC on environmental MDR isolate (microdilution). The settings on record: Escherichia coli.
Series [39] relates to LG1. Briefly: MIC on environmental MDR isolate (microdilution).
For series [40], the system named is human red blood cells (hRBCs). Nature of the series: Hemolytic activity. It counts as cell-based. Here is the method: The compound PS9 was evaluated for hemolytic effect on human RBCs. In brief, RBCs suspension 10% (v/v) cleaned with 1 × PBS and resuspended again in 1 × PBS (pH 7.4). […] The samples were centrifuged and absorbance of the supernatant was taken at 415 nm to obtain the percentage of RBCs lysis. Triton X-100 with 1% (v/v) was used as a positive control. Percentage of RBCs lysis was calculated as:% RBCs lysis = (OD415nm sample − OD415nm PBS)/(OD415nm Triton X-100 1% − OD415nm PBS)(1)

Values after ≈ are worked out from the molar mass of the structure shown. Like-named read-outs stand apart in the source and are kept apart here. Some results are limits rather than exact numbers.

What is called IC50 is the concentration at which inhibition is half-maximal. As for `O=C(Nc1nccs1)C(=O)NC1CCCC1` [A, N1-cyclopentyl-N2-(thiazol-2-yl)oxalamide], the half-maximal inhibitory concentration (IC50) in [1] is 67 nM.
What is called inhibition is the relative decrease from the control value, in per cent. For orientation: MIC means the smallest concentration in the dilution series that meets the test's criterion for growth inhibition. Consider `CC1(C)S[C@@H]2[C@H](NC(=O)[C@H](N)c3ccccc3)C(=O)N2[C@H]1C(=O)O` [AMP, ampicillin, reference compound], for which the inhibition at 250 µg/mL in series [2], in series [3], in series [4], in series [5], in series [19] and in series [27] was 100% each time. The MIC in series [6] was 1020 µg/mL (≈ 2930 µM); in [7], 1020 µg/mL (≈ 2930 µM); in series [10] it was 1020 µg/mL (≈ 2930 µM); in series [11] it was 8 µg/mL (≈ 22.9 µM); in series [12] (Escherichia coli, read-out: MIC) it was 1 µg/mL (≈ 2.86 µM); in series [12] it was 1 µg/mL (≈ 2.86 µM). In addition, the minimal inhibitory concentration (MIC) in series [13] was determined as 1020 µg/mL (≈ 2930 µM); in series [14] it was 1 µg/mL (≈ 2.86 µM); in [15] it was 8 µg/mL (≈ 22.9 µM); in series [16], 256 µg/mL (≈ 733 µM); in [20], 1000 µg/mL (≈ 2860 µM); in series [21], 16 µg/mL (≈ 45.8 µM). The minimal inhibitory concentration (MIC) in series [22] is 2 µg/mL (≈ 5.72 µM); in series [23], 0.25 µg/mL (≈ 0.715 µM); in series [24] it was 1020 µg/mL (≈ 2930 µM); in [25] it was 8 µg/mL (≈ 22.9 µM); in [26], 256 µg/mL (≈ 733 µM); in series [28], 128 µg/mL (≈ 366 µM). The MIC in series [29] was 32 µg/mL (≈ 91.6 µM); in series [31], 0.25 µg/mL (≈ 0.715 µM); in series [32], 128 µg/mL (≈ 366 µM); in series [33], > 1020 µg/mL; in series [34], 512 µg/mL (≈ 1470 µM); in series [35], 32 µg/mL (≈ 91.6 µM). Besides, the MIC in series [36] was 16 µg/mL (≈ 45.8 µM); in [37] it was 64 µg/mL (≈ 183 µM); in series [38], < 2 µg/mL. The “MIC in Combination” value in series [8] worked out at 0.25 µg/mL; in [9], 0.25 µg/mL; in series [17] (combination PS6 + AMP), 0.50 µg/mL; in series [17] (combination PS9 + AMP) it was 0.5 µg/mL; in series [18] (combination PS6 + AMP), 0.25 µg/mL; in [18] (combination PS9 + AMP), 0.5 µg/mL. For the same compound, the “MIC in Combination” value in series [30] (combination PS6 + AMP) and in [30] (combination PS9 + AMP) was 0.0625 µg/mL in each case.
For `CO/N=C(\C(=O)N[C@@H]1C(=O)N2C(C(=O)O)=C(COC(C)=O)CS[C@H]12)c1csc(N)n1` [CTX, cefotaxime], the minimum inhibitory concentration (MIC) amounted to 256 µg/mL (≈ 562 µM) in [6]; 64 µg/mL (≈ 141 µM) in [7]; 8 µg/mL (≈ 17.6 µM) in series [10]; 8 µg/mL (≈ 17.6 µM) in series [11]; 1020 µg/mL (≈ 2250 µM) in [13]; 8 µg/mL (≈ 17.6 µM) in [15]. In addition, the minimum inhibitory concentration (MIC) was 128 µg/mL (≈ 281 µM) in series [16]; 16 µg/mL (≈ 35.1 µM) in series [39]; 1000 µg/mL (≈ 2200 µM) in series [20]; < 2 µg/mL in series [21]; 1020 µg/mL (≈ 2250 µM) in [24]; 8 µg/mL (≈ 17.6 µM) in [25]. Also, the MIC in [26] came out at 32 µg/mL (≈ 70.3 µM); in series [28], 128 µg/mL (≈ 281 µM); in series [29] it was 32 µg/mL (≈ 70.3 µM); in series [32], 256 µg/mL (≈ 562 µM); in [33] it was 128 µg/mL (≈ 281 µM); in [34], 1020 µg/mL (≈ 2250 µM). Moreover, the results for the minimum inhibitory concentration (MIC) in series [35], in series [37] and in series [38] were 1000 µg/mL (≈ 2200 µM), 512 µg/mL (≈ 1120 µM) and 64 µg/mL (≈ 141 µM), respectively.
Compound Triton-X 100 [reference compound] came in with a hemolysis in series [40] of 100%.
